Target: T1, ROCK II (Homo sapiens, UniProt O75116)
T1 construct: purchased Proqinase
Experiment: ROCK II kinase inhibition, Method 1 Proqinase setup (33P radioisotopic protein kinase assay)
Type: biochemical
Conditions: 33P radioisotopic assay, 1 μM ATP, read-out: IC50 Meth. 1
Experimental: A ^33P radioisotopic protein kinase assay is used to determine the IC50 for inhibiting ROCK II. A final 50 μl reaction cocktail, containing 60 mM HEPES-NaOH (pH 7.5), 3 mM MgCl2, 3 mM MnCl2, 3 μM Na-orthovanadate, 1.2 mM DTT, 1 μM ATP, 50 μg/ml PEG20.000, 1% (v/v) DMSO, 1 μM ATP (approx. 3×10^5 cpm ^33P-γ-ATP), the substrate (Substrate: S6 peptide—2000 ng/well) and recombinant protein kinase (0.5 nM-2.5 ng/well) is mixed on a shaker and incubated at 30° C. for 80 minutes. The reaction is stopped by the addition of 50 μl of a 2% solution of H3PO4 and mixed on a shaker. After washing twice with 200 μl of a 0.9% solution of NaCl, the dry plate is counted.

T1 sequence (O75116 whole entry): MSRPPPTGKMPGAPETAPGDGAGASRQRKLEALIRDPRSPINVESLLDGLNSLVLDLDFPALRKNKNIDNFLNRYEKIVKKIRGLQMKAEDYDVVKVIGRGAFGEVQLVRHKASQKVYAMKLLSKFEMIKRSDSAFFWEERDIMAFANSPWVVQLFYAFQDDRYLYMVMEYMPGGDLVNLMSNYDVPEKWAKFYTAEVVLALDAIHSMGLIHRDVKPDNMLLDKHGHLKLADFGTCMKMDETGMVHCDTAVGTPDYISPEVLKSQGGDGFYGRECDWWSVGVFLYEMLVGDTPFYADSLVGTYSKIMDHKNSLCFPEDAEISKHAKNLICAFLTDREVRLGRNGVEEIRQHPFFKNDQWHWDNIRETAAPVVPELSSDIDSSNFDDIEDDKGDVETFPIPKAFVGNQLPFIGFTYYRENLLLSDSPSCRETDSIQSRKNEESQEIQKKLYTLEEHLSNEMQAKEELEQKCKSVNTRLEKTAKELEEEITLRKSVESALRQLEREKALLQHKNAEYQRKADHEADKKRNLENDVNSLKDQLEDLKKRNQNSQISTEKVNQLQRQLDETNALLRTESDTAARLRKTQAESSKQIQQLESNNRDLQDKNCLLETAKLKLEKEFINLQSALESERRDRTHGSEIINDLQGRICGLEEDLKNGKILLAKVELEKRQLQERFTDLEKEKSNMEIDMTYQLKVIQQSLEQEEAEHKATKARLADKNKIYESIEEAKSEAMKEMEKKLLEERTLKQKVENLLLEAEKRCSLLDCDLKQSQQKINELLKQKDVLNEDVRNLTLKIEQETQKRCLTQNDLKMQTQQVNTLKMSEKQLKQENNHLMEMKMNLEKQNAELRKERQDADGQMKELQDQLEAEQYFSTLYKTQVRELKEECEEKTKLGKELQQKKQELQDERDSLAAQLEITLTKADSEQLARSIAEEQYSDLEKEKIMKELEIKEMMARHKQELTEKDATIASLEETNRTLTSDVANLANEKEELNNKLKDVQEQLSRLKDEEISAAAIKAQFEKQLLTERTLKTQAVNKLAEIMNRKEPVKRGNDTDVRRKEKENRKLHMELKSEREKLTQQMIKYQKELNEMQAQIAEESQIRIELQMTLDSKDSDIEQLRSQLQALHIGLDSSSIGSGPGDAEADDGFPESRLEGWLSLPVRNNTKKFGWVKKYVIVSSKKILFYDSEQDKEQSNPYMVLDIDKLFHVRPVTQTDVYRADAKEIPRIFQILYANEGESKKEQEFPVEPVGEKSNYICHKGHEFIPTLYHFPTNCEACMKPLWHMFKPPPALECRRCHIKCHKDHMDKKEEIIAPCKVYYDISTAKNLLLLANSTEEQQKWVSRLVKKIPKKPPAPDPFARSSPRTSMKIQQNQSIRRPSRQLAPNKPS

IC50 [nM]	Compound
100 to 1000	NCc1ccc(C(=O)Nc2ccncc2)cc1-c1cccc(C(=O)OCC2CCCC2)c1 [Compound 38, 2′-Aminomethyl-5′-(pyridin-4-ylcarbamoyl)-biphenyl-3-carboxylic acid cyclopentylmethyl ester]
100 to 1000	CN1CCC(OC(=O)c2cccc(-c3cc(C(=O)Nc4ccncc4)ccc3CN)c2)CC1 [Compound 48, 2′-Aminomethyl-5′-(pyridin-4-ylcarbamoyl)-biphenyl-3-carboxylic acid 1-methyl-piperidin-4-yl ester]
100 to 1000	CCCCCCOC(=O)c1cccc(-c2cc(C(=O)Nc3ccncc3)ccc2CN)c1 [Compound 17, 2′-Aminomethyl-5′-(pyridin-4-ylcarbamoyl)-biphenyl-3-carboxylic acid hexyl ester]
100 to 1000	NCc1ccc(C(=O)Nc2ccncc2F)cc1-c1cccc(C(=O)OCCF)c1 [Compound 178]
100 to 1000	NCc1ccc(C(=O)Nc2ccncc2F)cc1-c1cccc(OCC(=O)OCC2CCCC2)c1 [Compound 191]
1000 to 10000	COC(=O)c1ccc(-c2cc(C(=O)Nc3ccncc3)ccc2CN)cc1 [Compound 2, 2′-Aminomethyl-5′-(pyridin-4-ylcarbamoyl)-biphenyl-4-carboxylic acid methyl ester]
1000 to 10000	NCc1ccc(C(=O)Nc2ccncc2F)cc1-c1cccc(CC(=O)OCCO)c1 [Compound 195]
1000 to 10000	COC(=O)C1CCN(C(=O)c2cccc(-c3cc(C(=O)Nc4ccncc4)ccc3CN)c2)CC1 [Compound 124, 1-[2′-Aminomethyl-5′-(pyridin-4-ylcarbamoyl)-biphenyl-3-carbonyl]-piperidine-4-carboxylic acid methyl ester]
100 to 1000	NCc1ccc(C(=O)Nc2ccncc2)cc1-c1cccc(NCCSC2CCOC2=O)c1 (centres unmarked) [Compound 136, 6-Aminomethyl-3′-[2-(2-oxo-tetrahydro-furan-3-ylsulfanyl)-ethylamino]-biphenyl-3-carboxylic acid pyridin-4-ylamide]
100 to 1000	NCc1ccc(C(=O)Nc2ccncc2F)cc1-c1cccc(C(=O)OCCC23CC4CC(CC(C4)C2)C3)c1 [Compound 189]
1000 to 10000	N#CCCOC(=O)Cc1cccc(-c2cc(C(=O)Nc3ccncc3F)ccc2CN)c1 [Compound 194]
100 to 1000	NCc1ccc(C(=O)Nc2ccncc2F)cc1-c1cccc(C(=O)OCCO)c1 [Compound 183]
100 to 1000	CC(C)OC(=O)c1cccc(-c2cc(C(=O)Nc3ccncc3)ccc2CN)c1 [Compound 26, 2′-Aminomethyl-5′-(pyridin-4-ylcarbamoyl)-biphenyl-3-carboxylic acid isopropyl ester]
1000 to 10000	COC(=O)C1CCCCN1C(=O)c1cccc(-c2cc(C(=O)Nc3ccncc3)ccc2CN)c1 (centres unmarked) [Compound 122, 1-[2′-Aminomethyl-5′-(pyridin-4-ylcarbamoyl)-biphenyl-3-carbonyl]-piperidine-2-carboxylic acid methyl ester]
100 to 1000	NCc1ccc(C(=O)Nc2ccncc2)cc1-c1cccc(C(=O)OC2CCOCC2)c1 [Compound 43, 2′-Aminomethyl-5′-(pyridin-4-ylcarbamoyl)-biphenyl-3-carboxylic acid tetrahydro-pyran-4-yl ester]
100 to 1000	NCc1ccc(C(=O)Nc2ccncc2F)cc1-c1cccc(C(=O)OCc2ccccc2)c1 [Compound 180]
100 to 1000	NCc1ccc(C(=O)Nc2ccncc2)cc1-c1cccc(C(=O)OC2CCCC2)c1 [Compound 32, 2′-Aminomethyl-5′-(pyridin-4-ylcarbamoyl)-biphenyl-3-carboxylic acid cyclopentyl ester]
100 to 1000	COC(=O)c1cc2c(-c3cc(C(=O)Nc4ccncc4)ccc3C(C)N)cccc2[nH]1 (centres unmarked) [Compound 171, 4-[2-(1-Amino-ethyl)-5-(pyridin-4-ylcarbamoyl)-phenyl]-1H-indole-2-carboxylic acid methyl ester]
100 to 1000	NCc1ccc(C(=O)Nc2ccncc2)cc1-c1cccc(C(=O)OCC2CCCCC2)c1 [Compound 39, 2′-Aminomethyl-5′-(pyridin-4-ylcarbamoyl)-biphenyl-3-carboxylic acid cyclohexylmethyl ester]
< 100	COC(=O)CNC(=O)c1cccc(-c2cc(C(=O)Nc3ccncc3)ccc2CN)c1 [Compound 102, {[2′-Aminomethyl-5′-(pyridin-4-ylcarbamoyl)-biphenyl-3-carbonyl]-amino}-acetic acid methyl ester]

IC50 [nM]	Compound
100 to 1000	NCc1ccc(C(=O)Nc2ccncc2F)cc1-c1cccc(C(=O)NC2CCSC2=O)c1 (centres unmarked) [Compound 179]
< 100	NCc1ccc(C(=O)Nc2ccncc2)cc1-c1cccc(C(=O)NCC(N)=O)c1 [Compound 106, 6-Aminomethyl-biphenyl-3,3′-dicarboxylic acid 3′-carbamoylmethyl-amide 3-pyridin-4-ylamide]
100 to 1000	NCc1ccc(C(=O)Nc2ccncc2F)cc1-c1cccc(CC(=O)OCC23CC4CC(CC(C4)C2)C3)c1 [Compound 182]
1000 to 10000	NCc1ccc(C(=O)Nc2ccncc2F)cc1-c1cccc(OCC(=O)OCc2ccccc2)c1 [Compound 181]
1000 to 10000	COC(=O)C1CCN(C(=O)c2cccc(-c3cc(C(=O)Nc4ccncc4)ccc3CN)c2)C1 (centres unmarked) [Compound 127, 1-[2′-Aminomethyl-5′-(pyridin-4-ylcarbamoyl)-biphenyl-3-carbonyl]-pyrrolidine-3-carboxylic acid methyl ester]
< 100	COC(=O)CNC(=O)COc1cccc(-c2cc(C(=O)Nc3ccncc3)ccc2CN)c1 [Compound 147, {2-[2′-Aminomethyl-5′-(pyridin-4-ylcarbamoyl)-biphenyl-3-yloxy]-acetylamino}-acetic acid methyl ester]
100 to 1000	NCc1ccc(C(=O)Nc2ccncc2)cc1-c1cccc(C(=O)Oc2ccccc2F)c1 [Compound 53, 2′-Aminomethyl-5′-(pyridin-4-ylcarbamoyl)-biphenyl-3-carboxylic acid 2-fluoro-phenyl ester]
100 to 1000	NCc1ccc(C(=O)Nc2ccncc2F)cc1-c1cccc(C(=O)OCC2CCCO2)c1 (centres unmarked) [Compound 187]
100 to 1000	NCc1ccc(C(=O)Nc2ccncc2)cc1-c1cccc(C(=O)NCCC2COC(=O)O2)c1 (centres unmarked) [Compound 113, 6-Aminomethyl-biphenyl-3,3′-dicarboxylic acid 3′-{[2-(2-oxo-[1,3]dioxolan-4-yl)-ethyl]-amide} 3-pyridin-4-ylamide]
< 100	NCc1ccc(C(=O)Nc2ccncc2)cc1-c1cccc(C(=O)OCC2COc3ccccc3O2)c1 (centres unmarked) [Compound 55, 2′-Aminomethyl-5′-(pyridin-4-ylcarbamoyl)-biphenyl-3-carboxylic acid 2,3-dihydro-benzo[1,4]dioxin-2-ylmethyl ester]
100 to 1000	NCc1ccc(C(=O)Nc2ccncc2F)cc1-c1cccc(C(=O)OCC2CCC2)c1 [Compound 184]
1000 to 10000	NCc1ccc(C(=O)Nc2ccncc2F)cc1-c1cccc(CC(=O)OCCF)c1 [Compound 192]
100 to 1000	NCc1ccc(C(=O)Nc2ccncc2F)cc1-c1cccc(C(=O)OCC2CCCC2)c1 [Compound 185]
100 to 1000	COCCOC(=O)c1cccc(-c2cc(C(=O)Nc3ccncc3)ccc2CN)c1 [Compound 41, 2′-Aminomethyl-5′-(pyridin-4-ylcarbamoyl)-biphenyl-3-carboxylic acid 2-methoxy-ethyl ester]
< 100	COC(=O)c1cccc(-c2cc(C(=O)Nc3ccncc3)ccc2CN)c1 [Compound 1, 2′-Aminomethyl-5′-(pyridin-4-ylcarbamoyl)-biphenyl-3-carboxylic acid methyl ester]
100 to 1000	CCCCCOC(=O)c1cccc(-c2cc(C(=O)Nc3ccncc3)ccc2CN)c1 [Compound 15, 2′-Aminomethyl-5′-(pyridin-4-ylcarbamoyl)-biphenyl-3-carboxylic acid pentyl ester]
100 to 1000	CCOC(=O)c1cccc(-c2cc(C(=O)Nc3ccncc3)ccc2CN)c1 [Compound 7, 2′-Aminomethyl-5′-(pyridin-4-ylcarbamoyl)-biphenyl-3-carboxylic acid ethyl ester]
100 to 1000	CCCOC(=O)c1cccc(-c2cc(C(=O)Nc3ccncc3)ccc2CN)c1 [Compound 10, 2′-Aminomethyl-5′-(pyridin-4-ylcarbamoyl)-biphenyl-3-carboxylic acid propyl ester]
100 to 1000	CCSC(=O)COc1cccc(-c2cc(C(=O)Nc3ccncc3)ccc2CN)c1 [Compound 143, [2′-Aminomethyl-5′-(pyridin-4-ylcarbamoyl)-biphenyl-3-yloxy]-thioacetic acid S-ethyl ester]
100 to 1000	NCc1ccc(C(=O)Nc2ccncc2)cc1-c1cccc(C(=O)OC2CCC2)c1 [Compound 31, 2′-Aminomethyl-5′-(pyridin-4-ylcarbamoyl)-biphenyl-3-carboxylic acid cyclobutyl ester]

Compound	IC50 [nM]
2′-Aminomethyl-5′- (pyridin-4-ylcarbamoyl)- biphenyl-3-carboxylic acid 2-methoxy-propyl ester [Compound 42]	100 to 1000

Source: US8912209B2, “Rock inhibitors” (Amakem NV, priority 2010, dated 2014)
